Assays:
WT EGFR = WT EGFR (Homo sapiens (Human), UniProt P00533); test: Kinase inhibition assay (HTRF), WT EGFR; format: biochemical; conditions: HTRF Kinase TK kit, 10 min pre-incubation, 20 min reaction
EGFR [L858R/T790M] = EGFR [L858R/T790M] (Homo sapiens (Human), UniProt P00533, L858R/T790M); test: Kinase inhibition assay (HTRF), EGFR [L858R/T790M]; format: biochemical; conditions: HTRF Kinase TK kit, 10 min pre-incubation, 20 min reaction; read-out: EGFR(L858R/T790M) IC50
[1] = test system: Skin cancer cell line A431 (WT); test: Cytotoxicity test (MTS cell viability), A431; format: cell-based; conditions: Homo sapiens, A-431; MTS, 72 hours; read-out: A431 (WT) IC50
[2] = test system: lung cancer cells HCC827 (Del19); test: Cytotoxicity test (MTS cell viability), HCC827; format: cell-based; conditions: Homo sapiens, HCC827; MTS, 72 hours; read-out: HCC827 (Del19) IC50

Chain of WT EGFR (P00533 25-1210): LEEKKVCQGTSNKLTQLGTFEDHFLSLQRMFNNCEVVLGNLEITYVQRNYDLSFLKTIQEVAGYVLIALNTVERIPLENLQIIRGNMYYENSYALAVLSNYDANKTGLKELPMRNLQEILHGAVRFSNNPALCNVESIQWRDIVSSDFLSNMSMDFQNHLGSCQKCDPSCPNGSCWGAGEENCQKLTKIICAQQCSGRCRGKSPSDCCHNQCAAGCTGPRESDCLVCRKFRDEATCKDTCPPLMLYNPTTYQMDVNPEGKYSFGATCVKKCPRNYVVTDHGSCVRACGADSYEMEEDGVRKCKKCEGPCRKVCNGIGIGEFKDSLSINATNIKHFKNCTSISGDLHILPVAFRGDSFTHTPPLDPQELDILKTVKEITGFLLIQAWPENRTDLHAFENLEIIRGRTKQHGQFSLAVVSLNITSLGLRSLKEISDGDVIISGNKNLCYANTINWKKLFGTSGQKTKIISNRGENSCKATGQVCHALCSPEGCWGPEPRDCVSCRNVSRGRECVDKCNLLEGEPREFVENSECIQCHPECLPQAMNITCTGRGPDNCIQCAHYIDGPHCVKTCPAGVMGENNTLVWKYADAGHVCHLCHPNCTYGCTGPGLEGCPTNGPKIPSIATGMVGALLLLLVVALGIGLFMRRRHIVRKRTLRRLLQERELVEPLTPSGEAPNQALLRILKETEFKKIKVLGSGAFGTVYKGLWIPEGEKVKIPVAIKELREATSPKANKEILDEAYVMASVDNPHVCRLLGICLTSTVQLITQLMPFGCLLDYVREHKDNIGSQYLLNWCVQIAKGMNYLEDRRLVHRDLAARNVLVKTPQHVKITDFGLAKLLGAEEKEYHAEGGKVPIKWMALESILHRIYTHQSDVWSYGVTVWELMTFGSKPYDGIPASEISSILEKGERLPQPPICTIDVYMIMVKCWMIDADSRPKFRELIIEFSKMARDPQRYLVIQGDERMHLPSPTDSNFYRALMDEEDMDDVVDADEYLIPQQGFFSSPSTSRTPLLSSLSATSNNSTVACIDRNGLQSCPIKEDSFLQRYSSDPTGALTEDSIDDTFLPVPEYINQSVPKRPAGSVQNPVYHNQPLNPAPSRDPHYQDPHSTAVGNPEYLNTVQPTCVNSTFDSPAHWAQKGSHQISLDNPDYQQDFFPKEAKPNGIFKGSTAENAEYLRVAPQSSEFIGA
Chain of EGFR [L858R/T790M] (P00533 25-1210 T790M/L858R): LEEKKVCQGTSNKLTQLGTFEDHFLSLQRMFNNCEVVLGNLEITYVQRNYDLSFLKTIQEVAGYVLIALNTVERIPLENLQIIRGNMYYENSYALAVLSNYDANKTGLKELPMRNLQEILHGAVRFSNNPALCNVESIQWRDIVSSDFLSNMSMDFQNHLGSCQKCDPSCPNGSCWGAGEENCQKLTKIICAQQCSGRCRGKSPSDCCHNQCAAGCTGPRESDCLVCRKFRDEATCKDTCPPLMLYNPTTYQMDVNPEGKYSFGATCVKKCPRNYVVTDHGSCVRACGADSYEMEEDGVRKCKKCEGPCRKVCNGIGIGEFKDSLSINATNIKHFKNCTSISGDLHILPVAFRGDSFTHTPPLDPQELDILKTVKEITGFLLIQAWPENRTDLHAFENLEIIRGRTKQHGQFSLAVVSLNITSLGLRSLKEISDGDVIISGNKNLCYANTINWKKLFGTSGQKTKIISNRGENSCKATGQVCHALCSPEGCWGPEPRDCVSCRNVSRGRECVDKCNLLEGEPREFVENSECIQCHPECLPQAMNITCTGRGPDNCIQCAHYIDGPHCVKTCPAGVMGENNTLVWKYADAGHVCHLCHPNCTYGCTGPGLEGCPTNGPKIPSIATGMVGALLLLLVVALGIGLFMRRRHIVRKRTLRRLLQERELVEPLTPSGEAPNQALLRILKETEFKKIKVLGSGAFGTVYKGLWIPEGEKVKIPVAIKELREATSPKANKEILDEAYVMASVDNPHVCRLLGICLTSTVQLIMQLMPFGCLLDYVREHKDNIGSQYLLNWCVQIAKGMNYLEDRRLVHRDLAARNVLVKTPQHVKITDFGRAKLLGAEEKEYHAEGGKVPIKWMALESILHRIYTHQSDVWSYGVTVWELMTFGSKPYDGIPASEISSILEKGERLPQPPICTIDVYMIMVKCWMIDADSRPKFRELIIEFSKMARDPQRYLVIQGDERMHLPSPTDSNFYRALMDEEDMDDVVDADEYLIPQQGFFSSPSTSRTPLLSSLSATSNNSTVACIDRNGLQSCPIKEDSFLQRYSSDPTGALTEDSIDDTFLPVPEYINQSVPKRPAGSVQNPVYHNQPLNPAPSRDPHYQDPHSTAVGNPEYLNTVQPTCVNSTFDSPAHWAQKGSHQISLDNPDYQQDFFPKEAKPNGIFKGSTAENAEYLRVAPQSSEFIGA

C=CC(=O)Nc1cc(Nc2nccc(-c3cc(F)c4nc(CF)n(C(C)C)c4c3)n2)c(OC)cc1N(C)CCN(C)C [Example 21, N-(2-((2-(dimethylamino)ethyl)(methyl)amino)-5-((4-(4-fluoro-2-(fluoromethyl)-1-isopropyl-1H-benzo[d]imidazole-6-yl)pyrimidin-2-yl)amino)-4-methoxyphenyl)acrylamide]
IC50 (WT EGFR): 1 to 50 nM
IC50 (EGFR [L858R/T790M]): < 1 nM
IC50 [1]: 100 to 400 nM
IC50 [2]: < 10 nM
